Test results published in patent US20080200655A1, “Protein Formulations Containing Sorbitol” (Wyeth, priority 2007, published 2008).

Experiments:
MAB-002 = assay: Five freeze-thaw cycles of MAB-002 in formulations with different polyols, HMW species formation; type: physicochemical; settings: MAB-002 5 mg/ml, 10 mM histidine pH 6.0, various polyol concentrations
Procedure: This experiment compared mannitol to other polyols with different maximum solubilities with respect to their abilities to induce aggregation during freeze-thaw. A monoclonal antibody referred to as MAB-002 was dialyzed into different liquid formulations containing mannitol, galactitol, or sorbitol, respectively, at various concentrations. Each formulation also contained 10 mM histidine, pH 6.0. The final concentration of MAB-002 in each of the liquid formulations was 5 mg/ml. Each formulation was then subject to five cycles of freeze-thaw, and monitored for HMW species formation. Changes in the percentage of HMW species was plotted against the polyol concentrations in FIG. 3.

[1] = cited from earlier work
[2] = Sub ambient DSC scan of formulation during cooling and warming; type: physicochemical; settings: formulation containing the polyol
[3] = test system: four monoclonal antibodies (mAb2, mAb3, mAb4, mAb5), a cytokine and a fusion protein; assay: Five freeze-thaw cycles of six proteins in 250 mM mannitol or sorbitol, HMW species formation; type: physicochemical; settings: each protein 1 mg/ml, 10 mM histidine pH 6.0, 250 mM polyol
Procedure: Six different proteins including four different monoclonal antibodies (referred to as mAb2, mAb3, mAb4, and mAb5), a cytokine and a fusion protein were dialyzed into 10 mM histidine, pH 6.0, and 250 mM mannitol or sorbitol. The final concentration of each protein was 1 mg/ml. The formulations were then subject to five cycles of freeze-thaw as described above, and monitored for HMW species formation.

Row | Compound | Induction of aggregation (change in percentage of HMW species) (MAB-002) | Maximum solubility [1] [mM] | Crystallization during cooling and warming [2] | Protein aggregation (HMW species formation) [3]
1 | OC[C@@H](O)[C@H](O)[C@H](O)[C@@H](O)CO [galactitol] | induced aggregation at low concentrations and at a faster rate compared to mannitol | 180 |  | 
2 | OC[C@@H](O)[C@@H](O)[C@H](O)[C@@H](O)CO [sorbitol] | did not induce aggregation significantly compared to mannitol | 4500 | no crystallization occurred | suppresses aggregation of multiple proteins
3 | OC[C@@H](O)[C@@H](O)[C@H](O)[C@H](O)CO [mannitol] |  | 1000 |  | considerably more protein aggregation
